20 compounds from ChEMBL document CHEMBL4190183 (Medchemcomm, 2016) can be followed below.

Activity calls are given as the source filed them. No cut-off for these calls is given here.

The target in series [1] is T1, DNA ligase 1 (Homo sapiens, UniProt P18858). In words: Inhibition of human DNA ligase 1 expressed in Escherichia coli BL21(DE3)RP cells assessed as reduction in fluorescently labelled ds nicked DNA substrate ligation at 100 uM after 30 mins by urea gel based imaging method relative to control.
T1 sequence (P18858 whole entry): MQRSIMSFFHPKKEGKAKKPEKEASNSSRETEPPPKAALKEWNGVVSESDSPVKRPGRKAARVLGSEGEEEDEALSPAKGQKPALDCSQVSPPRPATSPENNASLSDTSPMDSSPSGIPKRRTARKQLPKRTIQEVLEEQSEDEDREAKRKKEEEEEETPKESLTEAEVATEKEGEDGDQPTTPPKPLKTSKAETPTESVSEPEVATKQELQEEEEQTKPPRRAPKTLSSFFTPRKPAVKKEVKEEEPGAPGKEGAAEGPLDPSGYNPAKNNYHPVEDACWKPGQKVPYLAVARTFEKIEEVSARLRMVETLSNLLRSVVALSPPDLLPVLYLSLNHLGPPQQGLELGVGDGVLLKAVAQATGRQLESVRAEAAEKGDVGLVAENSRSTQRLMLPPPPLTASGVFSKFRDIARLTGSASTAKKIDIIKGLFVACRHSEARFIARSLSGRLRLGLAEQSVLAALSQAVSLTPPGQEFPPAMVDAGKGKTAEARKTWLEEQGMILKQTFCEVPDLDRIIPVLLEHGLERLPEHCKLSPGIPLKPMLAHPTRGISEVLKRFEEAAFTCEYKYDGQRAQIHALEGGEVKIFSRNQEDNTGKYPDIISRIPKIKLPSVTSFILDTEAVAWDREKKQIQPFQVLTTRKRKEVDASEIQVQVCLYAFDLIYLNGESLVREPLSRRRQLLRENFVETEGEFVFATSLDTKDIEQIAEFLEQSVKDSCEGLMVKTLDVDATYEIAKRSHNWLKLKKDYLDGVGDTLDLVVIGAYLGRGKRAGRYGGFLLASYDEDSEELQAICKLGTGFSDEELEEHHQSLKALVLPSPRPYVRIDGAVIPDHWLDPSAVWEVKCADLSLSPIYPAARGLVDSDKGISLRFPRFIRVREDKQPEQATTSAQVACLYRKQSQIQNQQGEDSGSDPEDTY
Series [2] relates to HepG2. In words: Cytotoxicity against human HepG2 cells assessed as cell death at 10 uM after 48 hrs by MTT assay relative to control. The series is classed as functional. For orientation: Formazan colour is commonly taken as a measure of viable cells.
A further series relates to A549. In words: Cytotoxicity against human A549 cells assessed as cell death at 10 uM after 48 hrs by MTT assay relative to control. The format is functional.
The subject of another series is HCT-116. Description: Cytotoxicity against human HCT116 cells assessed as cell death at 10 uM after 48 hrs by MTT assay relative to control. The format is functional.
For a further series, the system named is DLD-1. Description: Cytotoxicity against human DLD1 cells assessed as cell death at 10 uM after 48 hrs by MTT assay relative to control. The series is classed as functional.
Another series has as its system MDA-MB-231. In words: Cytotoxicity against human MDA-MB-231 cells assessed as cell death at 10 uM after 48 hrs by MTT assay relative to control. The format is functional.
The subject of another series is HEK293. Description: Cytotoxicity against HEK293 cells assessed as cell death at 10 uM after 48 hrs by MTT assay relative to control. The series is classed as cell-based. Particulars: human, hek293, 48 h.
In series [3] the target is T1, DNA ligase 1. Description: Residual activity of human DNA ligase 1 expressed in Escherichia coli BL21(DE3)RP cells assessed as DNA ligation at 100 uM using fluorescently labelled ds nicked DNA as substrate after 30 mins by urea gel based imaging method relative to control.
The test system of series [4] is HepG2. Description: Induction of cell death in human HepG2 cells at 0.625 uM after 48 hrs by MTT assay. The series is classed as functional, cell-based.
A short description of series [5]: Retention time of the compound by LC-MS/MS analysis. The series is classed as physicochemical.

As a reminder, the inhibition is the relative decrease from the control value, in per cent. On to `CCOC(=O)C1=C(C)NC(=O)NC1c1cc(/C=N/NC(=O)Nc2ccc(Br)cc2)c(O)c(C(C)(C)C)c1` (stereo unspecified), for which, at DNA ligase 1 [1], the inhibition stood at 84%. The Activity in the series on HepG2 [2] worked out at 65.3%; in the series with A549 it was 45.3%; with HCT-116, 57.2%; in the series with DLD-1 it was 60.2%; in the series with MDA-MB-231 it was 44.8%; with HEK293 it was 35.3%. Further, the ligation on DNA ligase 1 [3] is 16%.
In the case of `CCOC(=O)C1=C(C)NC(=S)NC1c1cc(/C=N/NC(=S)Nc2ccccc2)c(O)c(C(C)(C)C)c1` (stereo unspecified), the inhibition on DNA ligase 1 [1] was found to be 66.8%. For the same compound, the Activity in the series on HepG2 [2] is listed as 26.5%; in the series on A549 it was 29.6%; in the series with HCT-116, 49.9%; in the series on DLD-1 it was 67.6%; in the series with MDA-MB-231, 26.1%; in the series on HEK293, 54.1%. Also, the ligation at DNA ligase 1 [3] came to 33.2%.
In the case of `CCOC(=O)C1=C(C)NC(=O)NC1c1cc(/C=N/NC(N)=S)c(O)c(C(C)(C)C)c1` (stereo unspecified), the inhibition at DNA ligase 1 [1] came to 80.4%. The Activity was 11.1% in the series on HepG2 [2]; 17% with A549; 7.8% in the series with HCT-116; 5.5% with DLD-1; 21.1% with MDA-MB-231; 17% with HEK293. Further, the ligation at DNA ligase 1 [3] turned out to be 19.6%.
Regarding `CCOC(=O)C1=C(C)NC(=O)NC1c1cc(/C=N/NC(=S)Nc2ccccc2)c(O)c(C(C)(C)C)c1` (stereo unspecified), the inhibition on DNA ligase 1 [1] was determined as 88.1%. Further, the Activity in the series with HepG2 [2] stood at 43%; in the series on A549, 48.7%; in the series on HCT-116, 43.2%; in the series with DLD-1, 30%; in the series on MDA-MB-231 it was 50.4%; in the series with HEK293 it was 48.3%. Besides, the ligation at DNA ligase 1 [3] is 12%.
For the compound `CCOC(=O)C1=C(C)NC(=O)NC1c1cc(/C=N/NC(=S)Nc2ccc(Cl)cc2)c(O)c(C(C)(C)C)c1` (stereo unspecified), on DNA ligase 1 [1], the inhibition is 80.9%. Moreover, the Activity with HepG2 [2] worked out at 78.9%; in the series on A549, 53.3%; in the series on HCT-116, 82.5%; in the series on DLD-1, 43%; with MDA-MB-231 it was 83.6%; with HEK293 it was 53.1%. The ligation at DNA ligase 1 [3] was found to be 19.1%.
`COc1cccc2c1C(=O)c1c(O)c3c(c(O)c1C2=O)C[C@@](O)(C(=O)CO)C[C@@H]3O[C@H]1C[C@H](N)[C@H](O)[C@H](C)O1`: the outcome in the series on HepG2 [4] was Active.
In the case of `CCOC(=O)C1=C(C)NC(=O)NC1c1cc(/C=N/NC(N)=O)c(O)c(C(C)(C)C)c1` (stereo unspecified), the inhibition at DNA ligase 1 [1] was 77.6%. The Activity is reported as 0.7% with HepG2 [2]; 9.1% in the series on A549; 2.6% in the series on HCT-116; 19.9% with DLD-1; 18.4% in the series with MDA-MB-231; 14% in the series on HEK293. In addition, the ligation at DNA ligase 1 [3] worked out at 22.4%.
Turning to `CCOC(=O)C1=C(C)NC(=O)NC1c1cc(C)c(O)c(/C=N/NC(N)=S)c1` (stereo unspecified), on DNA ligase 1 [1], the inhibition came to 84.1%. Further, the Activity in the series with HepG2 [2] was determined as 23.3%; with A549, 4.7%; with HCT-116 it was 1.3%; with DLD-1 it was 6.2%; in the series on MDA-MB-231 it was 10.7%; with HEK293, 6.7%. For the same compound, the ligation at DNA ligase 1 [3] came out at 15.9%.
Consider `CCOC(=O)C1=C(C)NC(=O)NC1c1cc(/C=N/NC(=O)Nc2ccc(F)cc2)c(O)c(C(C)(C)C)c1` (stereo unspecified), for which, on DNA ligase 1 [1], the inhibition was found to be 84.7%. The Activity in the series on HepG2 [2] was determined as 37.1%; with A549, 39.3%; in the series with HCT-116, 17.5%; in the series with DLD-1, 19.1%; in the series with MDA-MB-231, 43.7%; in the series on HEK293, 46.8%. Moreover, at DNA ligase 1 [3], the ligation is 15.3%.
As for `CCOC(=O)C1=C(C)NC(=S)NC1c1cc(C)c(O)c(/C=N/NC(=O)Nc2ccc(Cl)cc2)c1` (stereo unspecified), at DNA ligase 1 [1], the inhibition came out at 86.7%. For the same compound, the Activity in the series on HepG2 [2] stood at 22.8%; in the series on A549, 12.8%; in the series with HCT-116, 50.8%; in the series on DLD-1 it was 1%; in the series with MDA-MB-231, 20.2%; in the series on HEK293 it was 42.6%. Moreover, the ligation at DNA ligase 1 [3] was 13.4%.
`CCOC(=O)C1=C(C)NC(=S)NC1c1cc(/C=N/NC(=O)Nc2ccccc2)c(O)c(C(C)(C)C)c1` (stereo unspecified): the inhibition on DNA ligase 1 [1] is 80.9%. Moreover, the Activity in the series on HepG2 [2] came to 26%; in the series with A549, 26.8%; in the series with HCT-116 it was 17.9%; in the series with DLD-1, 17.6%; in the series on MDA-MB-231, 7%; with HEK293, 53.3%. Also, the ligation at DNA ligase 1 [3] was determined as 19.1%.
Regarding `CCOC(=O)C1=C(C)NC(=O)NC1c1cc(C=O)c(O)c(C(C)(C)C)c1` (stereo unspecified), on DNA ligase 1 [1], the inhibition worked out at 73.6%. For the same compound, the Activity with HepG2 [2] was 11.4%; in the series on A549 it was 25.4%; in the series on HCT-116, 1.8%; with DLD-1 it was 8.1%; in the series with MDA-MB-231, 20.7%; in the series on HEK293, 10.7%. Moreover, the ligation at DNA ligase 1 [3] amounted to 26.4%.
Regarding `CCOC(=O)C1=C(C)NC(=O)NC1c1cc(C)c(O)c(/C=N/NC(N)=O)c1` (stereo unspecified), the inhibition on DNA ligase 1 [1] turned out to be 64.3%. For the same compound, the Activity is 9.7% with HepG2 [2]; 7% in the series on A549; 4.3% with HCT-116; -3% in the series on DLD-1; 13.9% in the series with MDA-MB-231; 15.7% with HEK293. On DNA ligase 1 [3], the ligation came to 35.7%.
For `OC(Cn1cncn1)(Cn1cncn1)c1ccc(F)cc1F` [FLUCONAZOLE], in series [5], the Retention_time turned out to be 2.08 min.
As for `CCOC(=O)C1=C(C)NC(=S)NC1c1cc(/C=N/NC(=O)Nc2ccc(Cl)cc2)c(O)c(C(C)(C)C)c1` (stereo unspecified), the inhibition at DNA ligase 1 [1] amounted to 77.1%. Also, the Activity with HepG2 [2] worked out at 81.3%; in the series on A549, 54%; with HCT-116, 63.3%; in the series with DLD-1 it was 17.1%; in the series with MDA-MB-231 it was 13.8%; in the series with HEK293 it was 65.7%. In addition, the ligation on DNA ligase 1 [3] turned out to be 22.9%.
Take `CCOC(=O)C1=C(C)NC(=S)NC1c1cc(/C=N/NC(=S)Nc2ccc(Cl)cc2)c(O)c(C(C)(C)C)c1` (stereo unspecified): the inhibition at DNA ligase 1 [1] turned out to be 79.4%. Further, the Activity in the series with HepG2 [2] is listed as 28.9%; in the series on A549, 24.5%; in the series with HCT-116, 57.8%; in the series with DLD-1 it was 15.5%; in the series on MDA-MB-231 it was 17.3%; in the series with HEK293, 52.7%. The ligation on DNA ligase 1 [3] stood at 20.6%.
On to `CCOC(=O)C1=C(C)NC(=O)NC1c1cc(/C=N/NC(=S)NC)c(O)c(C(C)(C)C)c1` (stereo unspecified), for which the inhibition on DNA ligase 1 [1] came to 80.8%. Besides, the Activity in the series with HepG2 [2] is 23.7%; in the series with A549, 27.3%; with HCT-116, 22.5%; in the series with DLD-1 it was 34.1%; in the series with MDA-MB-231, 29.7%; with HEK293 it was 24.6%. The ligation at DNA ligase 1 [3] turned out to be 19.2%.
On to `CCOC(=O)C1=C(C)NC(=O)NC1c1cc(C)c(O)c(C=O)c1` (stereo unspecified), for which the inhibition on DNA ligase 1 [1] came to 76.9%. The Activity with HepG2 [2] is on record as 18.3%; in the series on A549, 34.7%; in the series with HCT-116 it was 5.7%; in the series with DLD-1 it was 14.7%; in the series with MDA-MB-231, 32.5%; in the series on HEK293, 9.2%. Further, the ligation on DNA ligase 1 [3] was found to be 23.1%.
In the case of `CCOC(=O)C1=C(C)NC(=S)NC1c1cc(/C=N/NC(=S)Nc2ccc(C)cc2)c(O)c(C(C)(C)C)c1` (stereo unspecified), at DNA ligase 1 [1], the inhibition was 68.9%. The Activity was 23.5% with HepG2 [2]; 9.3% in the series with A549; 50.5% in the series with HCT-116; 45.7% in the series on DLD-1; 3.3% in the series with MDA-MB-231; 40.2% in the series on HEK293. Besides, the ligation on DNA ligase 1 [3] amounted to 31.1%.
`CCOC(=O)C1=C(C)NC(=O)NC1c1cc(C)c(O)c(/C=N/NC(=S)NC)c1` (stereo unspecified): the inhibition at DNA ligase 1 [1] was 80.4%. Moreover, the Activity in the series with HepG2 [2] was 33.1%; in the series with A549 it was 14%; with HCT-116 it was 17.7%; with DLD-1, 18.1%; in the series with MDA-MB-231 it was 31%; in the series with HEK293 it was 22.7%. Moreover, the ligation on DNA ligase 1 [3] was found to be 19.6%.
